We go through 21 compounds from paper PMC5514901, “Synthesis and evaluation of anthranilamide-based derivatives as FXa inhibitors” (Oncotarget, 2017).

One data set addresses T1, human FXa (Homo sapiens, UniProt P00742).
T1 construct: purchased Hyphen BioMed
Briefly: Inhibition activity measurement against FXa (chromogenic substrate CS-11(22)). It counts as biochemical. The conditions noted are these: for Ki / IC50: human FXa; for IC50: chromogenic substrate, 37°C, read at 405 nm. As for the experimental part:
The inhibition of FXa was measured using human FXa (Hyphen BioMed, city, Paris, FRA) and chromogenic substrate CS-11(22) (Hyphen BioMed, Paris, FRA) in 384-well microtiter plates at room temperature. […] 2 μL of FXa (56.8 nM), 16 μL of Tris buffer (adjust to pH 7.4 with HCl containing 0.3 M NaCl and 50 mM Tris) and 3 μL of test compound were added to the well, respectively. The negative control was composed of the same mixed solutions except replacing test compound with DMSO. […] After incubated at 37°C for 5 min, 8 μL of FXa substrate solution (3.5 mM) was added and then incubated at 37°C for 25 min. The FXa activity was measured at 405 nm using a SpectraMax M5 (Molecular Devices, Sunnyvale, CA, USA). The IC50 was calculated by the software named SPSS (IBM, North Castle, NY, USA) and the Probit function in it.

The next data set deals with human plasma. Briefly: Prothrombin time (PT) assay. It counts as biochemical. Conditions: concentration doubling prothrombin time in human plasma. As for the experimental part: A commercially available automatic coagulometer (Steellex Science Instrument Co., Ltd., Beijing, China) was employed to measure PT. The clotting times were also measured using the instrument itself, in accordance with the manufacturer's instructions. Increasing concentrations of inhibitor or solvent were added to human plasma and incubated for 3 min at 37°C. Prothrombin time (PT) was determined by automatic coagulometer.

Another data set deals with human FIIa (thrombin). Details: method as in PMID 16305517. The conditions noted are these: read-out: IC50 against thrombin; cited from earlier work.

T1 sequence (P00742 235-488 limits assumed): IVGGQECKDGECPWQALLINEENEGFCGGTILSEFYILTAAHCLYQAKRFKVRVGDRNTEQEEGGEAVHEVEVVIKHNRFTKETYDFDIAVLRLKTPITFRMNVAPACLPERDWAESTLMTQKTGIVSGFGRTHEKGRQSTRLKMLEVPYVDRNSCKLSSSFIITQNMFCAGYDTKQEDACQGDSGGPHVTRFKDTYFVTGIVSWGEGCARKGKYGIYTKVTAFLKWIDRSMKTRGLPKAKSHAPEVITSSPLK
T1 sequence (P00742 41-179 partner limits assumed): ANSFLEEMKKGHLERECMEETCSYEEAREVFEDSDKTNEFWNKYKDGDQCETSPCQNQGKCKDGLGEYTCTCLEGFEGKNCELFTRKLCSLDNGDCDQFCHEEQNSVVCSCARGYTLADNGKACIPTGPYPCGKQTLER

Broadly, the Ki is the dissociation constant of the complex between target and ligand, obtained from inhibition or displacement. A higher Ki goes with a looser hold on the target. A word on the IC50: it is the concentration needed to halve the response being measured. As usually defined, the melting point is the temperature of the solid-liquid transition. On to `O=C(Nc1ccccc1C(=O)Nc1ccc(-n2ccccc2=O)cc1)c1ccc(Br)s1` [6a, 5-bromo-N-(2-((4-(2-oxopyridin-1(2H)-yl)phenyl)carb-amoyl)phenyl)thiophene-2-carboxamide], for which the melting point was over 250 °C. At human FXa, this compound showed a Ki of 0.0205 µM and an IC50 of 0.0287 µM. The “2 × PT (Human)” value in the data set on human plasma amounted to 8.4 µM.

Compound `Cc1ccc(NC(=O)c2ccc(Br)s2)c(C(=O)Nc2ccc(-n3ccccc3=O)cc2)c1` [6a-b, 5-bromo-N-(4-methyl-2-((4-(2-oxopyridin-1(2H)-yl)ph-enyl)carbamoyl)phenyl)thiophene-2-carboxamide] displayed a melting point of over 250 °C. On human FXa, this compound registered an inhibition constant Ki of 0.0134 µM and an IC50 of 0.0188 µM. Further, in the data set on human plasma, the “2 × PT (Human)” value was 4.2 µM.

The compound `O=C(Nc1ccc(Cl)cc1C(=O)Nc1ccc(N2CCOCC2=O)cc1)c1ccc(Br)s1` [6a-e, 5-bromo-N-(4-chloro-2-((4-(3-oxomorpholino)phenyl)carbamoyl)phenyl)thiophene-2-carboxamide] returned a melting point of over 250 °C. The compound also yielded an IC50 against human FXa of 0.125 µM. In addition, in the data set on human plasma, the “2 × PT (Human)” value stood at 3.8 µM.

In turn, `O=C(Nc1ccccc1C(=O)Nc1ccc(-n2ccccc2=O)cc1)c1ccc(Cl)cc1Cl` [6k, 2,4-dichloro-N-(2-((4-(2-oxopyridin-1(2H)-yl)phenyl)arbamoyl)phenyl)benzamide] registered a melting point of over 250 °C. Also, on human FXa, the Ki is 0.017 µM and the IC50 amounted to 0.0238 µM. In the data set with human plasma, the “2 × PT (Human)” value worked out at 16.4 µM.

Compound `O=C(Nc1ccc(Cl)cc1C(=O)Nc1ccc(-n2ccccc2=O)cc1)c1ccc(Cl)cc1Cl` [6k-a, 2,4-dichloro-N-(4-chloro-2-((4-(2-oxopyridin-1(2H)-yl)phenyl)carbamoyl)phenyl)benzamide] returned a melting point of over 250 °C. Moreover, at human FXa, the Ki is 0.0586 µM and the IC50 is 0.082 µM. Besides, the “2 × PT (Human)” value in the data set with human plasma amounted to 16.9 µM.

In turn, `Cc1ccc(NC(=O)c2ccc(Cl)cc2Cl)c(C(=O)Nc2ccc(-n3ccccc3=O)cc2)c1` [6k-b, 2,4-dichloro-N-(4-methyl-2-((4-(2-oxopyridin-1(2H)-yl)phenyl)carbamoyl)phenyl)benzamide] displayed a melting point of over 250 °C. At human FXa, this compound yielded a Ki of 0.0254 µM and an IC50 of 0.0355 µM. Also, the “2 × PT (Human)” value in the data set on human plasma turned out to be 11.3 µM.

For the compound `O=C(Nc1ccc(Cl)cc1C(=O)Nc1ccc(N2CCOCC2=O)cc1)c1ccc(Cl)cc1Cl` [6k-e, 2,4-dichloro-N-(4-chloro-2-((4-(3-oxomorpholino)phe-nyl)carbamoyl)phenyl)benzamide], the melting point was over 250 °C. Also, the midpoint of inhibition at human FXa, the IC50, lay at 0.259 µM.

As for `Cc1ccc(NC(=O)c2ccc(Cl)cc2Cl)c(C(=O)Nc2ccc(N3CCOCC3=O)cc2)c1` [6k-f, 2,4-dichloro-N-(4-methyl-2-((4-(3-oxomorpholino)phe-nyl)carbamoyl)phenyl)benzamide], the melting point was over 250 °C. Also, the IC50 on human FXa was found to be 0.282 µM.

With `Cc1cccc(C(=O)Nc2ccc(N3CCOCC3=O)cc2)c1NC(=O)c1ccc(Cl)cc1Cl` [6k-g, 2-(2,4-dichlorobenzamido)-3-methyl-N-(4-(3-oxomor-pholino)phenyl)benzamide], the melting point is over 250 °C. Besides, at human FXa (SAR statement in text), the “FXa inhibitory activity (in words)” value was “poor IC50 values at a micromole level”. Moreover, the IC50 on human FXa was over 1 µM.

`COc1ccc(C(=O)Nc2ccccc2C(=O)Nc2ccc(-n3ccccc3=O)cc2)cc1` [6l, 2-(4-methoxybenzamido)-N-(4-(2-oxopyridin-1(2H)-yl)phenyl)benzamide]: the melting point was over 250 °C. The compound further had an IC50 on human FXa of 0.181 µM.

`COc1ccc(C(=O)Nc2ccc(Cl)cc2C(=O)Nc2ccc(-n3ccccc3=O)cc2)cc1` [6l-a, 5-chloro-2-(4-methoxybenzamido)-N-(4-(2-oxopyridin-1(2H)-yl)phenyl)benzamide] returned a melting point of over 250 °C. The compound further displayed an IC50 against human FXa of over 1 µM.

Consider `COc1ccc(C(=O)Nc2ccc(C)cc2C(=O)Nc2ccc(-n3ccccc3=O)cc2)cc1` [6l-b, 2-(4-methoxybenzamido)-5-methyl-N-(4-(2-oxopyrid-in-1(2H)-yl)phenyl)benzamide], for which the melting point is over 250 °C. Further, the IC50 at human FXa came to 0.452 µM.

Compound `COc1ccc(C(=O)Nc2c(C)cccc2C(=O)Nc2ccc(-n3ccccc3=O)cc2)cc1` [6l-c, 2-(4-methoxybenzamido)-3-methyl-N-(4-(2-oxopyrid-in-1(2H)-yl)phenyl)benzamide] registered a melting point of over 250 °C. Moreover, at human FXa, the IC50 was over 1 µM.

The compound `COc1ccc(C(=O)Nc2ccccc2C(=O)Nc2ccc(N3CCOCC3=O)cc2)cc1` [6l-d, 2-(4-methoxybenzamido)-N-(4-(3-oxomorpholino)phe-nyl)benzamide] returned a melting point of over 250 °C. The compound further returned an IC50 against human FXa of 0.459 µM.

Consider `COc1ccc(C(=O)Nc2ccc(Cl)cc2C(=O)Nc2ccc(N3CCOCC3=O)cc2)cc1` [6l-e, 5-chloro-2-(4-methoxybenzamido)-N-(4-(3-oxomorph-olino)phenyl)benzamide], for which the melting point was over 250 °C. On human FXa, the IC50 amounted to 0.485 µM.

`COc1ccc(C(=O)Nc2ccc(C)cc2C(=O)Nc2ccc(N3CCOCC3=O)cc2)cc1` [6l-f, 2-(4-methoxybenzamido)-5-methyl-N-(4-(3-oxomorph-olino)phenyl)benzamide] registered a melting point of over 250 °C. Further, the concentration for half-maximal inhibition (IC50) at human FXa stood at 0.433 µM.

In the case of `COc1ccc(C(=O)Nc2c(C)cccc2C(=O)Nc2ccc(N3CCOCC3=O)cc2)cc1` [6l-g, 2-(4-methoxybenzamido)-3-methyl-N-(4-(3-oxomorph-olino)phenyl)benzamide], the melting point was over 250 °C. Also, the IC50 at human FXa was over 1 µM.

Regarding `COc1ccc(C(=O)Nc2ccccc2C(=O)Nc2ccc(-n3ccccc3=O)cc2)cc1OC` [6m, 3,4-dimethoxy-N-(2-((4-(2-oxopyridin-1(2H)-yl)phenyl)arbamoyl)phenyl)benzamide], the melting point was over 250 °C. The IC50 against human FXa was over 1 µM.

`COc1cc(C(=O)Nc2ccccc2C(=O)Nc2ccc(-n3ccccc3=O)cc2)cc(OC)c1OC` [6n, 3,4,5-trimethoxy-N-(2-((4-(2-oxopyridin-1(2H)-yl)phenyl)carbamoyl)phenyl)benzamide] displayed a melting point of over 250 °C. The compound further returned a half-maximal inhibitory concentration (IC50) on human FXa of over 1 µM.

The compound `O=C(Nc1ccccc1C(=O)Nc1ccc(-n2ccccc2=O)cc1)c1ccc(C(F)(F)F)cc1` [6o, N-(4-(2-oxopyridin-1(2H)-yl)phenyl)-2-(4-(trifluoro-methyl)benzamido)benzamide] returned a melting point of over 250 °C. For the same compound, on human FXa, the IC50 was over 1 µM.

For the compound `O=C(NC[C@H]1CN(c2ccc(N3CCOCC3=O)cc2)C(=O)O1)c1ccc(Cl)s1` [rivaroxaban, reference compound], the “2 × PT (Human)” value in the data set on human plasma was found to be 0.2 µM. Also, the IC50 with human FIIa (thrombin) is 6.9 µM.
